The compounds below were run against T1, human M4 muscarinic acetylcholine receptor (Homo sapiens, UniProt P08173) (assay: human FLIPR-based M4 PAM assay, CHO-K1 cells stably transfected with human M4 receptor and chimeric G-protein Gαqi5). Details: inflection point (IP) of dose response curve; acetylcholine added at 20% of maximum response; CHO-K1 human M4/Gαqi5, FLIPR Tetra.
T1 construct: expressed in transfected cells; host or cells: CHO-K1
T1 sequence (P08173 1-479): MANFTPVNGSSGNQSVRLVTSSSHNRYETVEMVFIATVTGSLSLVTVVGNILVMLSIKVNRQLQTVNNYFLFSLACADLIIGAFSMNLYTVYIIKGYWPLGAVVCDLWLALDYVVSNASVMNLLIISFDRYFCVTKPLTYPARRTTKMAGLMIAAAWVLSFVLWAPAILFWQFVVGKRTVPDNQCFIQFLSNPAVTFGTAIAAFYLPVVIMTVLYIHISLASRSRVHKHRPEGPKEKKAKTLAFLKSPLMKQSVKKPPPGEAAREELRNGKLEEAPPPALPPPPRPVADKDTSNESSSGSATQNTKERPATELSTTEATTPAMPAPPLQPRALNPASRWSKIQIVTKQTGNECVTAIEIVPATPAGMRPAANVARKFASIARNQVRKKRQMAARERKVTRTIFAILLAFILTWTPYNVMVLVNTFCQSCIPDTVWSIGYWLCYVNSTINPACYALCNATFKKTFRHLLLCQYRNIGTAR
Assay type: cell-based
Procedure, shortened: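 CHO-K1 cells were loaded with calcium dye at 37 °C for ~1 h. Fluorescence (ex 470–495/em 515–575 nm) was read for 4 min after test compound at increasing concentrations, then 3.5 min after acetylcholine at an EC20; sometimes a third addition at EC70 followed. The value is the inflection point of a 4-parameter logistic fit.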

SMILES	EC50 [nM]
COc1ccc(OC2CCN(c3ncnc(N4CCCC4)c3C)CC2)cn1 [Example 237, 4-(4-((6-methoxypyridin-3-yl)oxy)piperidin-1-yl)-5-methyl-6-(pyrrolidin-1-yl)pyrimidine]	1820
Cc1c(-c2ccc(F)cc2)ncnc1N1CCC(Oc2cccc(C#N)c2)CC1 [Example 254, 3-((1-(6-(4-fluorophenyl)-5-methylpyrimidin-4-yl)piperidin-4-yl)oxy)benzonitrile]	2470
Cc1ncc(C)c(N2CCC(Oc3ccc4c(c3)C(=O)NC4)CC2)n1 [Example 100, 6-((1-(2,5-dimethylpyrimidin-4-yl)piperidin-4-yl)oxy)isoindolin-1-one]	674
COc1ccc(OC2CCN(c3nnc(C(=O)NCc4ccncc4Cl)cc3C)CC2)cn1 [Example 154, N-[(3-chloropyridin-4-yl)methyl]-6-{4-[(6-methoxypyridin-3-yl)oxy]piperidin-1-yl}-5-methylpyridazine-3-carboxamide]	262
COc1ccc(OC2CCN(c3nnc(C(=O)NCc4ccncc4)cc3C(F)F)CC2)cn1 [Example 265, 5-(Difluoromethyl)-6-(4-((6-methoxypyridin-3-yl)oxy)piperidin-1-yl)-N-(pyridin-4-ylmethyl)pyridazine-3-carboxamide]	585
Cc1c(Cl)nc(CO)nc1N1CCC(Oc2ccc3c(c2)CCCN3)CC1 [Example 93, (4-chloro-5-methyl-6-(4-((1,2,3,4-tetrahydroquinolin-6-yl)oxy)piperidin-1-yl)pyrimidin-2-yl)methanol]	33
Cc1ncc(C)c(N2CC[C@H](Oc3cccc(C#N)c3)[C@@H](F)C2)n1 [Example 83, 3-(((3S,4S)-1-(2,5-dimethylpyrimidin-4-yl)-3-fluoropiperidin-4-yl)oxy)benzonitrile]	475
COc1ccc(OC2CCN(c3nnc(C(=O)NCc4cc(F)c(OC)c(F)c4)cc3C)CC2)cn1 [Example 181, N-(3,5-difluoro-4-methoxybenzyl)-6-{4-[(6-methoxypyridin-3-yl)oxy]piperidin-1-yl}-5-methylpyridazine-3-carboxamide]	871
CNc1ncnc(N2CCC(Oc3ccc(OC)nc3)CC2)c1C [Example 234, 6-(4-((6-methoxypyridin-3-yl)oxy)piperidin-1-yl)-N,5-dimethylpyrimidin-4-amine]	134
COc1ccc(OC2CCN(c3nnc(C)c(C)c3C#N)CC2)cn1 [Example 86, 3-(4-((6-methoxypyridin-3-yl)oxy)piperidin-1-yl)-5,6-dimethylpyridazine-4-carbonitrile]	1170
CCc1cc(C(=O)NCc2ccncc2)nnc1N1CCC(Oc2ccc(OC)nc2)CC1 [Example 205, 5-Ethyl-6-(4-((6-methoxypyridin-3-yl)oxy)piperidin-1-yl)-N-(pyridin-4-ylmethyl)pyridazine-3-carboxamide]	97
Cc1c(Cl)nc(CO)nc1N1CCC(Oc2ccc3c(c2)CCCC3=O)CC1 [Example 36, 6-((1-(6-chloro-2-(hydroxymethyl)-5-methylpyrimidin-4-yl)piperidin-4-yl)oxy)-3,4-dihydronaphthalen-1(2H)-one]	222
Cc1cc(C(=O)NCc2ccncc2)nnc1N1CCC(Oc2ccccc2)CC1 [Example 114, 5-methyl-6-(4-phenoxypiperidin-1-yl)-N-(pyridin-4-ylmethyl)pyridazine-3-carboxamide]	53
COc1ccc(OC2CCN(c3nc(C(=O)NCc4ccccc4Cl)nc(Cl)c3C)CC2)cn1 [Example 219, 4-chloro-N-(2-chlorobenzyl)-6-(4-((6-methoxypyridin-3-yl)oxy)piperidin-1-yl)-5-methylpyrimidine-2-carboxamide]	1090
COc1ccc(OC2CCN(c3nnc(C(=O)NCc4ccccc4Cl)cc3C)CC2)cn1 [Example 195, N-(2-chlorobenzyl)-6-{4-[(6-methoxypyridin-3-yl)oxy]piperidin-1-yl}-5-methylpyridazine-3-carboxamide]	57
